Measured values taken from US9416128B2, “Fused heterocyclic compounds as ion channel modulators” (Gilead Sciences, Inc., priority 2013, dated 2016).
Like-named read-outs stand apart in the source and are kept apart here.

Legend:
[1] = target: wild-type human cardiac sodium channel, hNaV 1.5 (Peak INa) (Homo sapiens, UniProt Q14524); assay: Peak INa screening assay (tonic block and use-dependent block); format: cell-based
Method in brief: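 HEK293 cells stably expressing hNaV1.5 alpha subunit without beta subunits, whole-cell automated patch clamp. Compound at 1 or 3 μM added twice 60 s apart, then 200 s equilibration before tonic and use-dependent block voltage protocols. Block calculated versus compound-free condition with rundown correction; intracellular solution CsF/CsCl-based, pH 7.35.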

[2] = target: T1, hNaV1.2 (SCN2A) (Homo sapiens, UniProt Q99250); assay: Use-dependent inhibition of the CNS NaV1.2 sodium channel; format: cell-based; conditions: HEK-293, % inhibition, 25 Hz; for inhibition at 1 µM: use-dependent block at 1 uM, read-out: Nav1.2 UDB 25 Hz 1 uM; for inhibition at 10 µM: use-dependent block at 10 uM, read-out: Nav1.2 UDB 25 Hz 10 uM
T1 construct: expressed in transfected cells
T1 sequence (Q99250 whole entry): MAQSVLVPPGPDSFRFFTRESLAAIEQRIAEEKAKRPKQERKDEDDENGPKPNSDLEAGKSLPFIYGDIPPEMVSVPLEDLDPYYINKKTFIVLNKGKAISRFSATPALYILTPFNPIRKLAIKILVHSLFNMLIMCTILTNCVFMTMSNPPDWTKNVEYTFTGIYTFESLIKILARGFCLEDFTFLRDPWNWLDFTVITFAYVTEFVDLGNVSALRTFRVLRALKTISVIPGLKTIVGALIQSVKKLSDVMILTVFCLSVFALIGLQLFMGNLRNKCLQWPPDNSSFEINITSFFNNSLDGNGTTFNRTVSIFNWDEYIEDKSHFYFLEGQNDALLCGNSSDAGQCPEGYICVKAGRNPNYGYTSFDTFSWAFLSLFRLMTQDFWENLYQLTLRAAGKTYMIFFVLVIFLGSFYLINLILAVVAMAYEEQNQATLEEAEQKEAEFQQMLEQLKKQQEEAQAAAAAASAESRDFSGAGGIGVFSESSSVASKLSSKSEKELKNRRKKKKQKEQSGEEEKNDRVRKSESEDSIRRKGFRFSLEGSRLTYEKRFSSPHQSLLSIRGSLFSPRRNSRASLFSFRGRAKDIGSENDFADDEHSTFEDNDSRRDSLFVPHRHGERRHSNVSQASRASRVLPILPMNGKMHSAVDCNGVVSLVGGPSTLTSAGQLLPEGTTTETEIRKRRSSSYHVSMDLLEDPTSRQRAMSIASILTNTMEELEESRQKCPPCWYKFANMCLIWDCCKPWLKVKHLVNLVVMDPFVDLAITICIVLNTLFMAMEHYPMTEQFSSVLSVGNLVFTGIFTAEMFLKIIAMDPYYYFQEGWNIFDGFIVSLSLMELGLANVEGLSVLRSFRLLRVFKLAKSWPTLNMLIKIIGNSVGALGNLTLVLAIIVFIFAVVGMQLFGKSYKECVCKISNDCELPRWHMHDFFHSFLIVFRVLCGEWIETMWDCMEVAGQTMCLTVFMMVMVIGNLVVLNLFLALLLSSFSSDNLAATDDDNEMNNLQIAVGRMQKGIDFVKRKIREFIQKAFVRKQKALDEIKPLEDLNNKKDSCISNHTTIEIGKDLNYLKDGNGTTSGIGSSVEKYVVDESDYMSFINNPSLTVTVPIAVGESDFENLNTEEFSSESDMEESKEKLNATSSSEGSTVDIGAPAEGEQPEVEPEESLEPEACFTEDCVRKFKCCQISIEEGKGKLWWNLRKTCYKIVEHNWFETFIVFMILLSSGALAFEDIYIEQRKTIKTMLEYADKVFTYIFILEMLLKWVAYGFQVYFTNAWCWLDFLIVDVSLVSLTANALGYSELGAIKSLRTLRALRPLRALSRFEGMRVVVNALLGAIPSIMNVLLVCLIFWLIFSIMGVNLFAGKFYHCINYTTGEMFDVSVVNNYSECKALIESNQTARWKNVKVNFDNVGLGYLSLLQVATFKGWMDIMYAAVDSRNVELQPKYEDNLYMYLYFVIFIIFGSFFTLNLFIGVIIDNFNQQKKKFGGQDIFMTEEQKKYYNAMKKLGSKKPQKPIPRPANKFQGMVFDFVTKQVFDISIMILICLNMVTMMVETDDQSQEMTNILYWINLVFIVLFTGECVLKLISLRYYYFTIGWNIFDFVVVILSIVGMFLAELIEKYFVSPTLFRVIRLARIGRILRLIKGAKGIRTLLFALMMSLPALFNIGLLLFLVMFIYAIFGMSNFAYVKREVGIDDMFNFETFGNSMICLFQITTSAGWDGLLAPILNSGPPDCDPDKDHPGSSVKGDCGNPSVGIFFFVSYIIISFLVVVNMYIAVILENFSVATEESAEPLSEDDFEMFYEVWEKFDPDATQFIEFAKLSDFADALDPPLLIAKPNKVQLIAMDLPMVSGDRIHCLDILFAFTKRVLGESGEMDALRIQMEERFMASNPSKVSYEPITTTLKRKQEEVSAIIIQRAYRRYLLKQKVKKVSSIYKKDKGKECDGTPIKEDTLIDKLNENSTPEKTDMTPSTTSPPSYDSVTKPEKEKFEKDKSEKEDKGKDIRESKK
T1 sequence (Q07699 19-218 partner): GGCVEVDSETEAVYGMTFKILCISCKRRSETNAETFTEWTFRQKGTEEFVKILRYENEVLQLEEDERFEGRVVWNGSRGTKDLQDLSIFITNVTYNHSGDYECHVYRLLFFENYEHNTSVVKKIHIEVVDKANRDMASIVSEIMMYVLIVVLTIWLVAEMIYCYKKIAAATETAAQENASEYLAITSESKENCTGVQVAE
T1 sequence (O60939 30-215 partner): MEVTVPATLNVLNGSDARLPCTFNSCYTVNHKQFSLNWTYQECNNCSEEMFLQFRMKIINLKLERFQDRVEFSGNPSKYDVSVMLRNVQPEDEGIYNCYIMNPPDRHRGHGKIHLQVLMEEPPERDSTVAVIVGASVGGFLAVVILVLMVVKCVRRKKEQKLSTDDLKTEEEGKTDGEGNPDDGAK
Method in brief: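 Use-dependent block of human NaV1.2 was recorded by automated whole-cell patch clamp (QPatch) in HEK-293 cells stably expressing hNaV1.2 with beta1 and beta2 subunits. From a −120 mV holding potential, a 25 Hz train of twenty 20 ms pulses to 0 mV was applied. Peak current at pulse 20, normalized to pulse 1, gave percent inhibition versus compound-free conditions at 23-25° C.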

[3] = % inhibition, use-dependent block of peak INa at 3 uM, 3 Hz, pulse 50, read-out: Nav1.5 Peak UDB 3 Hz 3 uM
[4] = read-out: Nav1.5 Peak TB 3 uM, % inhibition, tonic block of peak INa at 3 uM, 0.1 Hz, holding -100 mV

Sequence of wild-type human cardiac sodium channel, hNaV 1.5 (Peak INa) (Q14524 whole entry): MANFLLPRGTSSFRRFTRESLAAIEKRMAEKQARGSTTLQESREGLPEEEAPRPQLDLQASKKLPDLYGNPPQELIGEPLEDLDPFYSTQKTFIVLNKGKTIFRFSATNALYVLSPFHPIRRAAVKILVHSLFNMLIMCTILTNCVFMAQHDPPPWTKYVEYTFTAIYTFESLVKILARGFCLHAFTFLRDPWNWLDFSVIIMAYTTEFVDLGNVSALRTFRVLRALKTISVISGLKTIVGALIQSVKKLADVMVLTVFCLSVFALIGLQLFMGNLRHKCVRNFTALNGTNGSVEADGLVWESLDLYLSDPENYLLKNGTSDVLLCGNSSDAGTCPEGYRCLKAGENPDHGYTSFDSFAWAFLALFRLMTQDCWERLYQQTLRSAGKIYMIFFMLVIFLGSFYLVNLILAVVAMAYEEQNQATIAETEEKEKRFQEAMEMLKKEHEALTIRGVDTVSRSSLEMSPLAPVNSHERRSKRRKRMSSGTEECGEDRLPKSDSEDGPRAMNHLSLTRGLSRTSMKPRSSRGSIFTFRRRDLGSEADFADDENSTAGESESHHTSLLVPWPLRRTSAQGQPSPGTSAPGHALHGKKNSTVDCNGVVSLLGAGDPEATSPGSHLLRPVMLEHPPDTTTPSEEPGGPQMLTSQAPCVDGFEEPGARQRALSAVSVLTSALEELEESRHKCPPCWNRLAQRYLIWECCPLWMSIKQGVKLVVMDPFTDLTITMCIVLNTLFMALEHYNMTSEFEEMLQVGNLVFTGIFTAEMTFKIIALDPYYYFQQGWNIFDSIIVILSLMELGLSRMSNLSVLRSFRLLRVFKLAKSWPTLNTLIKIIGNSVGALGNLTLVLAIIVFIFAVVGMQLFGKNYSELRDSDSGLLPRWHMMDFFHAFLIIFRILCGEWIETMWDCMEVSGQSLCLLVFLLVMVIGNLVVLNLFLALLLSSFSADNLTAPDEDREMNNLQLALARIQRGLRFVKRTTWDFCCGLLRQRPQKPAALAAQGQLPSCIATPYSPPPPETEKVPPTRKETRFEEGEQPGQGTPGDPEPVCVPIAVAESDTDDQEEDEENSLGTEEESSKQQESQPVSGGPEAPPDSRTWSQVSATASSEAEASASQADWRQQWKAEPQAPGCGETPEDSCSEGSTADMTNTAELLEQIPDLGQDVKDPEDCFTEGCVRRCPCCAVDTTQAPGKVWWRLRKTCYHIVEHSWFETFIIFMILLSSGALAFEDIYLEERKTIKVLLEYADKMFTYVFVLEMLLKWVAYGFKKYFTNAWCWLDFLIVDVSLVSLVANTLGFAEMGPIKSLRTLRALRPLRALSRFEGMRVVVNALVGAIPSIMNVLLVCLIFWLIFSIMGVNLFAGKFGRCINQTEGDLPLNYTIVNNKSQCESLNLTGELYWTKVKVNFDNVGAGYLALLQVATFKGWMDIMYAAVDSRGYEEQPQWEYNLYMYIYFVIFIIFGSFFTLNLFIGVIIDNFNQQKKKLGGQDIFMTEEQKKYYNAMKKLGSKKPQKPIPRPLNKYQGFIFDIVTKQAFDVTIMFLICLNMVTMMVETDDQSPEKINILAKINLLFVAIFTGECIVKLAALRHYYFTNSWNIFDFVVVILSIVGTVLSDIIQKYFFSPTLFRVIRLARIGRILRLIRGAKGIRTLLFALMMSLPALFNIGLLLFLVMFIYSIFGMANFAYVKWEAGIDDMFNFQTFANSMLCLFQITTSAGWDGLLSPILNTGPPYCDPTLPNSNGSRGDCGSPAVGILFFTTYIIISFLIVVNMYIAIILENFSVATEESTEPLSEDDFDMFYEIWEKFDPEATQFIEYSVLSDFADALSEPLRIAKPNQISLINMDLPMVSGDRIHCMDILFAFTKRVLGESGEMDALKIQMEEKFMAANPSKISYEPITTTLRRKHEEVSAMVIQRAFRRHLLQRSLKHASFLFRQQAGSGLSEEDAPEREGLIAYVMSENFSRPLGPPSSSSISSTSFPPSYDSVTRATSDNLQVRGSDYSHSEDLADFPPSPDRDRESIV

Compound | inhibition at 3 µM [1, 3] [%] | inhibition at 3 µM [1, 4] [%] | inhibition at 1 µM [2] [%] | inhibition at 10 µM [2] [%]
Cc1ccnc(CN2Cc3cc(-c4ccc(OC(F)(F)F)cc4)ccc3OC2=O)n1 [Example 29, 3-((4-methylpyrimidin-2-yl)methyl)-6-(4-(trifluoromethoxy)phenyl)-3,4-dihydro-2H-benzo[e][1,3]oxazin-2-one] | 14.1 | 36.1 | 36.1 | 81.7
O=C1Oc2ccc(-c3ccc(C(F)(F)F)cc3)cc2CN1Cc1ccncc1 [Example 2, 3-(pyridin-4-ylmethyl)-6-(4-(trifluoromethyl)phenyl)-3,4-dihydro-2H-benzo[e][1,3]oxazin-2-one] | 16.2 | 18.5 | 19.8 | 28.1
Cc1csc(CN2Cc3cc(-c4ccc(Cl)c(Cl)c4)ccc3OC2=O)n1 [Example 56, 6-(3,4-dichlorophenyl)-3-((4-methylthiazol-2-yl)methyl)-3,4-dihydro-2H-benzo[e][1,3]oxazin-2-one] | < 5 | – | < 5 | 15.2
O=C1Oc2ccc(-c3ccc(C(F)(F)F)cc3)cc2CN1CCc1ncccn1 [Example 17, 3-(2-(pyrimidin-2-yl)ethyl)-6-(4-(trifluoromethyl)phenyl)-3,4-dihydro-2H-benzo[e][1,3]oxazin-2-one] | < 5 | 12.9 | 34.2 | 56.6
Cc1cnc(CN2Cc3cc(-c4ccc(OC(F)(F)F)cc4F)ccc3OC2=O)nc1 [Example 14, 6-(2-fluoro-4-(trifluoromethoxy)phenyl)-3-((5-methylpyrimidin-2-yl)methyl)-3,4-dihydro-2H-benzo[e][1,3]oxazin-2-one] | < 5 | 24 | < 5 | 59.9
